Experimental data: US9777037B2, “Neurosteroid compounds” (BIONATURE E. A. LTD., priority 2007, dated 2017)

What was measured:
[1] = tested on: Bcl-2 and Bcl-xL proteins; test: Western blot of anti-apoptotic Bcl-2 and Bcl-xL proteins in serum-deprived PC12 cells; type: cell-based, rat; conditions: 10 nM neurosteroid (FIG. 4)
Protocol: Neural-crest derived PC12 cells were cultured for 8 hours in the absence of serum, but supplemented with 10 nM of various neurosteroids. At the end of incubation cell lysates were subjected to electrophoresis through a 12% SDS-polyacrylamide gel. Then, proteins were transferred to nitrocellulose membranes, which were processed according to standard Western blotting procedures. To detect protein levels, membranes were incubated with the appropriate antibodies: Bcl-2, (Santa Cruz Biotechnology Inc., Santa Cruz, Calif., dilution 1:100) Bcl-xL (Cell Signalling Technology Inc., Beverly, Mass., dilution 1:100). A PC-based Image Analysis program was used to quantify the intensity of each band (Image Analysis, Inc., Ontario, Canada). To normalize for protein content, the blots were stripped and stained with anti-actin antibodies (Chemicon, Temecula, Calif., dilution 1:400); the concentration of each target protein was normalized versus actin.

Ishikawa cells = test: Ishikawa cell growth (MTT), estrogen agonism/antagonism; type: cell-based, human
From the text: (§1) Treatment of postmenopausal syndromes with 17β-estradiol (E2) is associated with a higher risk of developing breast and/or endometrial cancer (Arch Intern Med. 166, 1027 (2006)). E2 stimulation of the proliferation of cancer cells is driven by estrogen receptor alpha (ERα) (Mol. Endocrinol. 13, 969 (1999)). Since BNN-50, BNN-93 and BNN-124 may form two hydrogen bonds with an O—O distance of 10.9-12.5 Å and thus may fit the ERα binding cavity (Chem. Biol. 11, 397 (2004)), it was imperative to examine the estrogen agonism/antagonism properties of these neurosteroids using human adenocarcinoma cells from breast (MCF-7 cells) and uterus (Ishikawa cells) as reporters. […] Differences between control and neurosteroid-treated cells were assessed using one-way ANOVA. […]
(§2) To determine neurosteroid effects on the growth of MCF-7 human mammary (from ATCC) and Ishikawa endometrial adenocarcinoma cells (from ECACC), the cells were cultured at 37° C. in Dulbecco's Minimal Essential Medium (DMEM) supplemented with 10% Fetal Bovine Serum (FBS, from Biochrom) in 5% CO2 and subcultured using a trypsin 0.25%-EDTA 0.02% solution. Neurosteroid effects on the growth of the cells were assessed using MTT [3-(4,5-dimethylthiazol-2-yl)-2,5-diphenyltetrazolium bromide] and standard methodology (Chem. Biol. 11, 397 (2004)). […]

[2] = tested on: Dopaminergic neural-crest derived PC12 cells; test: Dopamine secretion from dopaminergic PC12 cells (radioimmunoassay); type: cell-based, rat; conditions: 10^-7 M
Protocol: Dopaminergic neural-crest derived PC12 cells were grown in 6-well plates, coated with poly-L-lysine, at a concentration of 10^6 cells/well. Cells were incubated with neurosteroids or the vehicle for several time periods; for the short-term experiments the incubation time ranged from 5 to 30 minutes and for the long-term from 3 to 48 hours. 1 mL of supernatants were transferred to tubes containing 200 μl 0.1 M HCl for measurement of dopamine, which was measured by radioimmunoassay (TriCat™ RIA, RE29395, IBL Immuno Biological Lab., Hamburg, Germany) using ^125I as a tracer. The analytical sensitivity of the method was 30 pg/ml, its intra-assay CV was 9.5%, and its inter-assay CV was 16.7%. The cross reactivity between dopamine and norepinephrine was <0.013%

[3] = tested on: tyrosine hydroxylase mRNA; test: Tyrosine hydroxylase (TH) RT-PCR in dopaminergic PC12 cells; type: cell-based, rat; conditions: dopaminergic PC12 cells (FIG. 6C)
Protocol: Tyrosine Hydroxylase (TH) RT-PCR: Total RNA was extracted from dopaminergic PC12 cells using the Trizol Reagent (Invitrogen Life technologies, CA). One microgram of total RNA was reverse transcribed by the Thermo-Script RT-PCR System (Invitrogen) using random hexamers in a total volume of 20 μl. Two microliters of the RT product was used as a template, amplified by PCR using 2 mM MgCl2, one strength PCR buffer, 0.2 mM of sense and antisense primers, 0.2 mM dNTPs and 2.5 U AmpliTaq Gold DNA polymerase (Perkin Elmer ABD, Foster City, Calif.) in a final reaction volume of 50 μl. PCR was performed in a Perkin Elmer DNA Thermal Cycler. Primers for TH were 5′-[…]-3′ (sense), and 5-[…]-3 (antisense) and for G3PDH were, 5′-[…]-3′ (sense), and 5′-[…]-3′ (antisense). Oligonucleotides were synthesized by MWG-Biotech AG (Munich, Germany). After reverse transcription, the cDNA product was amplified by PCR, at 33 cycles. The cycle number (33) was chosen such that amplification of the products was in the linear range with respect to the amount of input cDNA. PCR for G3PDH was performed in parallel to assure good quality of RNA and cDNA preparations. Each cycle consisted of 60 s at 92° C. for denaturation, 120 s at 53° C. for annealing, and 180 s at 72° C. for extension (60 s at 98° C., 90 s at 55° C., and 150 s at 72° C. for G3PDH respectively). 10 μl of the amplified products (368 bp for TH and 983 bp for G3PDH) were separated on a 2% agarose gel and visualized by ethidium bromide staining.

MCF-7 cells = test: MCF-7 cell growth (MTT), estrogen agonism/antagonism; type: cell-based, human
From the text: as §1, §2

With `C[C@]12CC[C@H](O)CC1=CCC1C2CC[C@@]2(C)C1CC[C@@]21CO1` (stereo partly drawn) [BNN-50, 17β-spiro-[5-androsten-17,2′-oxiran]-3β-ol] the “levels of anti-apoptotic Bcl-2 and Bcl-xL proteins” value [1] was “preventing this effect”, the “E2 agonism (at 1 uM), Ishikawa cell growth” value (Ishikawa cells) was “non-significant” and the “E2 antagonism (at 1 uM), Ishikawa cell growth” value (Ishikawa cells; against E2 at 0.1 nM) was “non-significant”. For the same compound, the “dopamine levels in culture media, long-term” value ([2]; 3 to 48 hours (FIG. 6B)) was “increase of dopamine levels peaking at 24 h”, the “stimulation of dopamine secretion, short-term” value ([2]; 5 to 30 min, effect within 10 min (FIG. 6A)) was “doubling their levels” and the “induction of tyrosine hydroxylase mRNA” value [3] was “strong induction”. For the same compound, the “E2 agonism (at 1 uM), MCF-7 cell growth” value (MCF-7 cells) was “non-significant” and the “E2 antagonism (at 1 uM), MCF-7 cell growth” value (MCF-7 cells; against E2 at 0.1 nM) was “non-significant”.
